The IC50 is the point on the concentration scale where inhibition reaches its midpoint. A higher IC50 goes with weaker potency in that assay. What is called CC50 is the concentration at which the toxic effect on the cells reaches its halfway point. The low end stands for greater toxicity to the cells, the high end for lower toxicity to the cells. As a reminder, the EC50 is the concentration at which the effect is half-maximal. Low values mean a more potent agent, high ones a less potent agent.

Twelve molecules from ChEMBL document CHEMBL1143735, “Synthesis, anti-HIV activity, and resistance profile of thymidine phosphonomethoxy nucleosides and their bis-isopropyloxymethylcarbonyl (bisPOC) prodrugs” (Bioorg Med Chem, 2007) can be followed below.

For data set [1], the target named is Human immunodeficiency virus type 1 reverse transcriptase (Human immunodeficiency virus 1, UniProt Q72547). Description: Inhibition of HIV1 reverse transcriptase.
Data set [2] is described as follows: Cytotoxicity against MT2 cells. Format: cell-based. To be noted: human.
For data set [3], the system named is Human immunodeficiency virus 1. As to the kind of experiment: Antiviral activity against HIV1 with reverse transcriptase 6TAM mutation assessed as reduction of potency relative to wild type. It is filed as functional.
Data set [4] relates to Human immunodeficiency virus 1. Description: Antiviral activity against HIV1 with reverse transcriptase K65R mutation assessed as reduction of potency relative to wild type. Format: functional.
For data set [5], the system named is Human immunodeficiency virus 1. As to the kind of experiment: Antiviral activity against HIV with reverse transcriptase M184V mutation assessed as reduction of potency relative to wild type. Format: functional.
In data set [6] the test system is Human immunodeficiency virus 1. Description: Inhibition of virus-induced cytopathic effect in wild type HIV 3a infected MT2 cells after 5 days. It is filed as functional, organism-based. To be noted: Human immunodeficiency virus 1, 3a, MT2, 120 h. In general terms: Damage to the host cells serves as the signal in cytopathic effect assays.

With `C[C@H](Cn1cnc2c(N)ncnc21)OCP(=O)(O)O` [TENOFOVIR ANHYDROUS], in data set [1], the IC50 was determined as 0.38 µM. The molecule further gave a CC50 in data set [2] of over 200 µM. Also, the results for the Fold change in data set [3], in data set [4] and in data set [5] were 8.8, 4.3 and 0.7, respectively.
Molecule `CC(C)OC(=O)OCOP(=O)(CO[C@H](C)Cn1cnc2c(N)ncnc21)OCOC(=O)OC(C)C.O=C(O)/C=C/C(=O)O` [TENOFOVIR DISOPROXIL FUMARATE] yielded an EC50 in data set [6] of 0.015 µM. Also, in data set [2], the CC50 was over 50 µM. For the same molecule, the Fold change is listed as 7.7 in data set [3] and 3.1 in data set [4].
In data set [6], `Cc1cn([C@H]2C=C[C@@H](COP(=O)(O)OP(=O)(O)OP(=O)(O)O)O2)c(=O)[nH]c1=O` [STAVUDINE TRIPHOSPHATE] returned an EC50 of 26 µM. Further, inhibition in data set [1] was half-maximal at 0.39 µM (IC50). This molecule also came in with a CC50 in data set [2] of over 500 µM. The Fold change in data set [3] worked out at 13; in data set [4] it was 5.2; in data set [5], 1.1.
Regarding `Cc1cn([C@H]2C=C[C@@H](OCP(=O)(O)O)O2)c(=O)[nH]c1=O`, a half-maximal effect in data set [6] (EC50) was put at 26 µM. In data set [1], this molecule yielded an IC50 of 0.39 µM. For the same molecule, the CC50 in data set [2] was over 500 µM. Besides, the Fold change in data set [3] is 13; in data set [4] it was 5.2; in data set [5], 1.1.
As for `Cc1cn([C@H]2C=C[C@@H](OCP(=O)(OCOC(=O)OC(C)C)OCOC(=O)OC(C)C)O2)c(=O)[nH]c1=O`, the EC50 in data set [6] came out at 0.91 µM. The CC50 in data set [2] was determined as 10 µM.
`Cc1cn([C@H]2C[C@H](N=[N+]=[N-])[C@@H](CO)O2)c(=O)[nH]c1=O` [ZIDOVUDINE] showed a CC50 in data set [2] of over 200 µM.
`Cc1cn([C@H]2C=C[C@@H](CO)O2)c(=O)[nH]c1=O` [STAVUDINE]: the EC50 in data set [6] turned out to be 4.8 µM. Also, half-maximal inhibition in data set [1] (IC50) required 0.06 µM. Also, the CC50 in data set [2] was 286 µM. In addition, the figures for the Fold change in data set [3], in data set [4] and in data set [5] were 5.5, 2.3 and 1.2, respectively.
Regarding `Cc1cn([C@H]2CC[C@@H](CO)O2)c(=O)[nH]c1=O`, in data set [6], the EC50 is over 200 µM. In addition, the IC50 in data set [1] amounted to 0.12 µM.
On to `Cc1cn([C@H]2CC[C@@H](OCP(=O)(O)O)O2)c(=O)[nH]c1=O`, for which the EC50 in data set [6] was over 200 µM. In addition, in data set [1], the IC50 is 5.4 µM. Further, the CC50 in data set [2] was over 500 µM.
`Cc1cn([C@H]2CC[C@@H](OCP(=O)(O)O)O2)c(=O)[nH]c1=O.O=P(O)(O)OP(=O)(O)O`: in data set [6], the EC50 was over 200 µM. This molecule also displayed an IC50 in data set [1] of 5.4 µM. In data set [2], the CC50 was over 500 µM.
`Cc1cn([C@H]2CC[C@@H](OCP(=O)(OCOC(=O)OC(C)C)OCOC(=O)OC(C)C)O2)c(=O)[nH]c1=O` displayed an EC50 in data set [6] of 1.3 µM. This molecule also registered a CC50 in data set [2] of over 50 µM.
As to `Cc1cn([C@H]2C[C@H](N=[N+]=[N-])[C@@H](OCP(=O)(O)O)O2)c(=O)[nH]c1=O`, in data set [6], the EC50 is over 200 µM.
